Assay results taken from US11149062B2, “HDAC inhibitors and methods of treatment using the same” (UWM Research Foundation, Inc., priority 2015, dated 2021).
Read-outs that look alike come from different tables or passages of the source.

What was measured:
Recombinant human HDAC1 = biological target: T1, Recombinant human HDAC1 (Homo sapiens, UniProt Q13547); assay: HDAC-Glo I/II assay, HDAC1; assay type: biochemical; conditions: for Class I selectivity Ratio HDAC 1/HDAC8: ratio of IC50 values
T1 construct: purchased BPS Bioscience Inc
T1 sequence (Q13547 whole entry): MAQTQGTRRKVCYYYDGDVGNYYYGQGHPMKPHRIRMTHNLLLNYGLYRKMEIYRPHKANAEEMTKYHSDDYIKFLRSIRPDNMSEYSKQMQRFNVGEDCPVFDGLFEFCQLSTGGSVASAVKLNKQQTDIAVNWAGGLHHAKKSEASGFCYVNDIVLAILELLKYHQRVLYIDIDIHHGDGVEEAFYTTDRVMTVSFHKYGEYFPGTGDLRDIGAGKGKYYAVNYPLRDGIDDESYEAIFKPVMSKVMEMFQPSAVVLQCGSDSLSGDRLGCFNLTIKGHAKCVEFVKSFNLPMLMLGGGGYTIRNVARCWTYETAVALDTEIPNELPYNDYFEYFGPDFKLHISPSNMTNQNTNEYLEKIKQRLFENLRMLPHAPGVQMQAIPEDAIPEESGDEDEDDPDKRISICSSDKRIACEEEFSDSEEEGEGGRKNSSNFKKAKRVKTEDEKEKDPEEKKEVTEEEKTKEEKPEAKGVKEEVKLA
Description: (§1) The purified compounds of all fragments and natural product derivatives were evaluated for inhibitory effects on three different classes of HDAC proteins (class I, IIa, and IIb). […] All activity was determined by using a fluorescence-based in vitro assay. Class I HDAC proteins that were evaluated were HDAC1, HDAC2, HDAC3, HDAC8, HDAC4, and HDAC6. Class IIa HDAC protein were HDAC4 and the Class IIb HDAC protein were HDAC6.
(§2) HDAC-Glo™ I/II Assay and Screening System (Promega) was used to determine the HDAC inhibitory activity. Recombinant human HDAC1, HDAC2, HDAC3, HDAC4, HDAC6 and HDAC8 were purchased from BPS Bioscience Inc. The inhibitory activities of the test compounds against recombinant HDAC were performed according to reagent suppliers' protocols.
(§3) All test compounds were firstly dissolved in DMSO to make 10 mM stock solution. A certain amount of stock solution was diluted to 1 mM by DMSO and then reduced by tris(2-carboxyethyl)phosphine hydrochloride (TCEP) in a molar ration of 1:1.5 for 20 min at ambient temperature prior to being assayed. After reduction, a series of fivefold dilutions of each reduced compound were prepared with HDAC-Glo buffer and 25 μL of each dilution was added into a well on a 96-well plate. HDAC enzymes were diluted to the desired concentrations with HDAC-Glo buffer and 25 μL of each diluted enzyme was dispensed into a well to mix with 25 μL of testing compound at room temperature for 30-60 seconds. After the reaction mixture had been incubated at room temperature for 1 hour, 50 μL of HDAC-Glo reagent was added to each reaction well and mixed up for 30-60 seconds. Finally, the plate was incubated at room temperature for an additional 30 minutes before the luminescence was measured on a Synergy HT plate reader (Bio-Tek). The luminescence intensity data were analyzed using GraphPad Prism 5 (GraphPad Software). In the absence of any test compound, the luminescence intensity (I100) in each data set was defined as 100% activity. In the absence of both of HDAC enzymes and test compound, the luminescence intensity (I0) in each data set was defined as 0% activity. The relative activity (%) in the presence of each compound was calculated according to the following equation: % activity=(I−I0)/(I100−I0), where I=the luminescence intensity if a compound is present in the reaction. Experiments were performed in triplicate and the calculated mean values were used for plotting.

Recombinant human HDAC4 = biological target: T2, Recombinant human HDAC4 (Homo sapiens, UniProt P56524); assay: HDAC-Glo I/II assay, HDAC4; assay type: biochemical
T2 construct: purchased BPS Bioscience Inc
T2 sequence (P56524 whole entry): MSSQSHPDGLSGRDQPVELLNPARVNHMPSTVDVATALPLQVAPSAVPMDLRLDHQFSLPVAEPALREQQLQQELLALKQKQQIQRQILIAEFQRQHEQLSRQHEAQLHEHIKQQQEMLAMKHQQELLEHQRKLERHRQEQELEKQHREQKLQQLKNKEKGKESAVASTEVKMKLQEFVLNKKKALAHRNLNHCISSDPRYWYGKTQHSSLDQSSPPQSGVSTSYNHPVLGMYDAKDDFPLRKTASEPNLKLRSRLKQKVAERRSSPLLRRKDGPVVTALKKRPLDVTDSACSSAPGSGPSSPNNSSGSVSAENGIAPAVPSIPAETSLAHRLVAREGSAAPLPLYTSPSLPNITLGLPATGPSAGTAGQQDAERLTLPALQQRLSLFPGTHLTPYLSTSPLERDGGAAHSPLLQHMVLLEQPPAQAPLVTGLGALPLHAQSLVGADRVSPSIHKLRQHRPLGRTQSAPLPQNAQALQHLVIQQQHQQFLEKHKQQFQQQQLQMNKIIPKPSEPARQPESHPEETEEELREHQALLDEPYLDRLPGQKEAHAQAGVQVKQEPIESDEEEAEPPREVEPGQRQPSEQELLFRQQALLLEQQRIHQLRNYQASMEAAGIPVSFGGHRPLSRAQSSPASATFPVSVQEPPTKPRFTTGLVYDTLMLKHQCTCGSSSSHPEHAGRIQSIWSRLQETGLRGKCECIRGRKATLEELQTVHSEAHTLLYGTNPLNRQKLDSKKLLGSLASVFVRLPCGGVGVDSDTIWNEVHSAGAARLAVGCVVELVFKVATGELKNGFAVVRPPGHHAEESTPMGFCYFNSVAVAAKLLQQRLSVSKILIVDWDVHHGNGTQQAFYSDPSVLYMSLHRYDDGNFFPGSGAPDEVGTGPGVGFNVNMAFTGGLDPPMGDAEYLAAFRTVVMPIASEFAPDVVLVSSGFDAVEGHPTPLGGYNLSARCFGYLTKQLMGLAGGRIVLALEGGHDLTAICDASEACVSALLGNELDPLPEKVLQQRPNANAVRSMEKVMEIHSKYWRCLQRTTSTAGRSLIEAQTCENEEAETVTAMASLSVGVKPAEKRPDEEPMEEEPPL
Description: as §1, §2, §3

HCT-116 (colon cancer) = assay: MTT antiproliferative assay, HCT-116; assay type: cell-based; conditions: Homo sapiens, read-out: Antiproliferative Activity GI50, Colon HCT-116
Description: (§4) Briefly, the tumor cells (1×10^4 cells/well) were seeded in 96-well microtiter plates and incubated for 24 h at 37° C. Following incubation, the media was replaced with fresh media containing the above compounds at concentrations ranging from 1 μM to 1 pM diluted in DMSO and incubated for an additional 48 h. Drugs were run in duplicate or triplicate and control cells received fresh media with DMSO concentration equivalent to the treatment groups. […] After aspirating the culture medium, 200 μL of DMSO was added to dissolve the precipitate and the resulting solution was measured for absorbance at 570 nm with a reference wavelength of 690 nm using a microplate reader (Infinite M200 Pro TECAN).

HeLa (cervical cancer) = assay: MTT antiproliferative assay, HeLa; assay type: cell-based; conditions: Homo sapiens, 48 h, read-out: Antiproliferative Activity GI50, Cervical HeLa
Description: as §4

RFX393 (renal) = assay: MTT antiproliferative assay, RFX393; assay type: cell-based; conditions: 48 h, read-out: Antiproliferative Activity GI50, Renal RFX393
Description: as §4

[1] = Maximum tolerated dose (MTD); conditions: BALB/c, mouse, in vivo, ip
From the text: (§5) BALB/c mice were purchased from The Jackson Laboratory (Bar Harbor, Me.) and used between 7 and 10 weeks of age. Mice were housed in a conventional animal vivarium and were given free access to food and water. All studies and procedures were approved by the Animal Care and Use Committee of the University of Wisconsin, Milwaukee.
(§6) Each animal was initially weighed using a digital scale and then intraperitoneally (IP) injected with the compounds (listed in Table 2). A single mouse was given a single IP dose of 200 mg/kg, body weight, a second mouse received a dose of 100 mg/kg and a third mouse received a single dose of 50 mg/kg. The mice were observed and weighed every other day for a period of 2 weeks. They were euthanized if they lost more than 20% of their body weight or if there were other signs of significant toxicity. […] This process was repeated until a tolerated dose was found, and the MTD value was determined.
(§7) To determine the MTD in vivo, the compounds listed above were injected intraperitoneally into BALB/c mice and morbidity and mortality were monitored over two weeks.

BALB/c mice = assay: Maximum tolerated dose (MTD)
From the text: as §5, §6, §7

SKOV-3 (ovarian) = assay: MTT antiproliferative assay, SKOV-3; assay type: cell-based; conditions: Homo sapiens, read-out: Antiproliferative Activity GI50, Ovarian SKOV-3
Description: as §4

DU-145 (prostate cancer) = assay: MTT antiproliferative assay, DU-145; assay type: cell-based; conditions: Homo sapiens, read-out: Antiproliferative Activity GI50, Prostate DU-145
Description: as §4

[2] = system: MDA-MB-231 (breast cancer); assay: MTT antiproliferative assay, MDA-MB-231; assay type: cell-based; conditions: Homo sapiens, read-out: Antiproliferative Activity GI50, Breast MDA-MB-231
Description: as §4

COLO-205 (colon cancer) = assay: MTT antiproliferative assay, COLO-205; assay type: cell-based; conditions: Homo sapiens, read-out: Antiproliferative Activity GI50, Colon COLO-205
Description: as §4

[3] = system: colon (HCT-116), cervical (HeLa), and renal (RFX393) tumor cell lines; assay: MTT antiproliferative assay, all three tumor cell lines; assay type: cell-based; conditions: read-out: GI50 values against all three tumor cell lines
Description: as §4

[4] = 10 mg/mL cpd in 20% DMSO/saline
Recombinant human HDAC2 = biological target: T3, Recombinant human HDAC2 (Homo sapiens, UniProt Q92769); assay: HDAC-Glo I/II assay, HDAC2; assay type: biochemical; conditions: Class I HDAC; compounds reduced by TCEP prior to assay
T3 construct: purchased BPS Bioscience Inc
T3 sequence (Q92769 whole entry): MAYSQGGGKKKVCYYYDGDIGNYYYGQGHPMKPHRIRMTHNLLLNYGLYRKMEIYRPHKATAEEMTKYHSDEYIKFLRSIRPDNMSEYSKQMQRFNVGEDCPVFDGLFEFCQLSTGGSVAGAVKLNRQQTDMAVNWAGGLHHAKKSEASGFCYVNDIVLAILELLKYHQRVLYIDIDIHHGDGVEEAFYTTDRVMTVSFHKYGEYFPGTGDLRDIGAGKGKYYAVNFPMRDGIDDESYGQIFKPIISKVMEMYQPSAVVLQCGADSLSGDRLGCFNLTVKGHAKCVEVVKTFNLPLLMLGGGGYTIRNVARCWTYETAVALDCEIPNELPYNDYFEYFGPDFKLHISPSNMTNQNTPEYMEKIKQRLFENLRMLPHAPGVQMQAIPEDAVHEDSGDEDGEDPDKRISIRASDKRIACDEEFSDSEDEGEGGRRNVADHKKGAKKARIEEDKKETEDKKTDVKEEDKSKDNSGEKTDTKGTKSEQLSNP
Description: as §1, §2, §3

Recombinant human HDAC3 = biological target: T4, Recombinant human HDAC3 (Homo sapiens, UniProt O15379); assay: HDAC-Glo I/II assay, HDAC3; assay type: biochemical; conditions: Class I HDAC; compounds reduced by TCEP prior to assay
T4 construct: purchased BPS Bioscience Inc
T4 sequence (O15379 whole entry): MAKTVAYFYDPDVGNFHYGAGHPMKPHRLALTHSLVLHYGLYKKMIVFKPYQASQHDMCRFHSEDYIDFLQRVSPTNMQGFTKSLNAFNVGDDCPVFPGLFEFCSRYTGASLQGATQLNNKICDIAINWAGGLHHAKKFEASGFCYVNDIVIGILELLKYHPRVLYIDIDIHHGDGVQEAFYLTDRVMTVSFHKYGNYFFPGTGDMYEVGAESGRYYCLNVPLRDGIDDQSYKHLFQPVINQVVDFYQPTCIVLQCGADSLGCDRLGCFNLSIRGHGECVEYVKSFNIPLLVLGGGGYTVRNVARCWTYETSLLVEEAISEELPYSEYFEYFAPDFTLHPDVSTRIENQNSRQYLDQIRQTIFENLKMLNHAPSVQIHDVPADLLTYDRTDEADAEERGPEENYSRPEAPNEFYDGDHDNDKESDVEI
T4 sequence (Q9Y618 395-489 partner limits assumed): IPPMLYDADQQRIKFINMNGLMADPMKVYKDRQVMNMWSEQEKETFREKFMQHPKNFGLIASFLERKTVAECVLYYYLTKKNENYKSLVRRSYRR
Description: as §1, §2, §3

Recombinant human HDAC8 = biological target: T5, Recombinant human HDAC8 (Homo sapiens, UniProt Q9BY41); assay: HDAC-Glo I/II assay, HDAC8; assay type: biochemical; conditions: Class I HDAC; compounds reduced by TCEP prior to assay
T5 construct: purchased BPS Bioscience Inc
T5 sequence (Q9BY41 1-377): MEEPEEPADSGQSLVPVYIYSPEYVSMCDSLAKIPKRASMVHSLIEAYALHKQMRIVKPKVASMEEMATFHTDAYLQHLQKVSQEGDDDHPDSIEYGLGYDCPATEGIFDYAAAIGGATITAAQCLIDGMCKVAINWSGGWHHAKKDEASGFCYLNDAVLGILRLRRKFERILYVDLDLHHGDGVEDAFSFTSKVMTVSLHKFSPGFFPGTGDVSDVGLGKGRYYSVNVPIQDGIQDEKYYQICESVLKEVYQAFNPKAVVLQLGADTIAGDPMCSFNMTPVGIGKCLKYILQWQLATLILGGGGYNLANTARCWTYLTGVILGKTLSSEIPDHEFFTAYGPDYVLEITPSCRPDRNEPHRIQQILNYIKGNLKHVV
Description: as §1, §2, §3

class I HDACs = assay: HDAC-Glo I/II assay, class I HDACs; assay type: biochemical, human; conditions: methyl esters compared with TDF4, TDF5, TDF6
Description: The purified compounds of all fragments and natural product derivatives were evaluated for inhibitory effects on three different classes of HDAC proteins (class I, IIa, and IIb). The natural products FK228, SAHA, TDP-A, and TDP-B were used as a positive control. All activity was determined by using a fluorescence-based in vitro assay. Class I HDAC proteins that were evaluated were HDAC1, HDAC2, HDAC3, HDAC8, HDAC4, and HDAC6. Class IIa HDAC protein were HDAC4 and the Class IIb HDAC protein were HDAC6.
as §2
as §3, with “After reduction, a series of fivefold dilutions of each reduced compound were prepared with HDAC-Glo buffer and 25 μL of each dilution was added into a well on a 96-well plate. HDAC enzymes were diluted to the desired concentrations with HDAC-Glo buffer and 25 μL of each diluted enzyme was dispensed into a well to mix with 25 μL of testing compound at room temperature for 30-60 seconds. After the reaction mixture had been incubated at room temperature for 1 hour, 50 μL of HDAC-Glo reagent was added to each reaction well and mixed up for 30-60 seconds.” left out

[5] = MTD (toxicity in healthy BALB/c mice), single IP dose, observed 2 weeks
[6] = Class I HDAC, compounds reduced by TCEP prior to assay, read-out: IC50 of HDAC1
[7] = Class IIa HDAC, compounds reduced by TCEP prior to assay, read-out: IC50 of HDAC4

Row | Structure (SMILES) | GI50 (HCT-116 (colon cancer); HCT-116, 48 h) [µM] | GI50 (HeLa (cervical cancer)) [µM] | GI50 (RFX393 (renal)) [µM] | MTD at 2 weeks [1, 5] [mg/kg] | Solubility [4] | IC50 (Recombinant human HDAC1; [6]) [µM] | Class I selectivity Ratio HDAC 1/HDAC8 (Recombinant human HDAC1) | IC50 (Recombinant human HDAC2) [µM] | IC50 (Recombinant human HDAC3) [µM] | IC50 (Recombinant human HDAC8) [µM] | IC50 (Recombinant human HDAC4; [7]) [µM] | GI50 (HCT-116 (colon cancer); HCT-116, MTT, 48 h) [µM] | GI50 (HeLa (cervical cancer); MTT) [µM] | GI50 (RFX393 (renal); MTT) [µM] | MTD at 2 weeks [1] [mg/kg] | fold less active toward all class I HDACs (class I HDACs) | further results
1 | C/C=C1\NC(=O)[C@H]2CSSCC/C=C/[C@H](CC(=O)N[C@H](C(C)C)C(=O)N2)OC(=O)[C@H](C(C)C)NC1=O [FK228, romidepsin, reference compound] | 0.0012 | 0.0013 | 0.0012 | 3.25 |  |  |  |  |  |  |  |  |  |  |  |  | IC50 (Recombinant human HDAC1): 0.0038 µM; IC50 (Recombinant human HDAC4): 2.37 µM; MTD (toxicity in healthy BALB/c mice) (BALB/c mice; single IP dose, observed 2 weeks): 3.125 mg/kg
2 | O=C(CCCCCCC(=O)Nc1ccccc1)NO [SAHA, suberoyl anilide hydroxamic acid, reference compound] | 2.7 | 2.8 | 2.5 | > 200 | Not soluble |  |  |  |  |  |  |  |  |  |  |  | GI50 (SKOV-3 (ovarian); SK-OV-3, 48 h): 1.5 µM; GI50 (DU-145 (prostate cancer); DU-145, 48 h): 2 µM; GI50 ([2]; MDA-MB-231, 48 h): 1.5 µM; GI50 (COLO-205 (colon cancer); COLO 205, 48 h): 0.5 µM; GI50 [3]: 2.5 to 3 µM
3 | CCC(C)C(NC(=O)CC(O)/C=C/CCS)C(=O)OC (stereo not drawn) [TDF4m] |  |  |  |  | Soluble | 0.0303 | 0.00061 | 2.12 | 0.0971 | 117 | > 1000 | 31 | 20.1 | 32.1 | > 200 | about 10 fold | 
4 | CCCC[C@H](NC(=O)CC(O)/C=C/CCS)C(=O)O (stereo partly drawn) [TDF5] |  |  |  |  | Mostly soluble | 0.0026 | 0.00002 | 0.0459 | 0.839 | 49.4 | > 1000 | 0.4 | 0.4 | 0.5 | > 200 |  | GI50 (SKOV-3 (ovarian); SK-OV-3, MTT, 48 h): 0.7 µM; GI50 (DU-145 (prostate cancer); DU-145, MTT, 48 h): 0.6 µM; GI50 ([2]; MDA-MB-231, MTT, 48 h): 0.5 µM; GI50 (COLO-205 (colon cancer); COLO 205, MTT, 48 h): 0.9 µM; MTD (toxicity in healthy BALB/c mice) (BALB/c mice; BALB/c, mouse, in vivo, ip, 2 weeks): >200 mg/kg; GI50 ([3]; HCT-116, HeLa, RFX393, summary of Table 3): 0.5 µM
5 | CCCC[C@H](NC(=O)CC(O)/C=C/CCS)C(=O)OC (stereo partly drawn) [TDF5m] |  |  |  |  | Soluble | 0.0265 | 0.00159 | 1.66 | 0.124 | 133 | > 1000 | 32.6 | 30.2 | 40.1 | > 200 | about 10 fold | 
6 | COC(=O)[C@@H](NC(=O)CC(O)/C=C/CCS)C(C)C (stereo partly drawn) [TDF6m] |  |  |  |  | Soluble | 0.0302 |  | 1.93 | 0.1 | 100 | > 1000 | 28.4 | 25.6 | 31.7 | > 200 | about 10 fold | 
